Like-named read-outs stand apart in the source and are kept apart here.
Key:
CDK7 = CDK7 (Homo sapiens, UniProt P50613); test: NanoBRET live-cell target engagement, NanoLuc-CDK7 in HEK-293; type: binding; conditions: CDK7
CDK12/Cyclin K = CDK12/Cyclin K (Homo sapiens, UniProt Q9NYV4); test: NanoBRET live-cell target engagement, CDK12-NanoLuc/Cyclin K in HEK-293; type: binding; conditions: CDK12/K, 10µM
CDK13/Cyclin K = CDK13/Cyclin K (Homo sapiens, UniProt Q14004); test: NanoBRET live-cell target engagement, CDK13-NanoLuc/Cyclin K in HEK-293; type: binding; conditions: CDK13/K, 10µM
CDK1/Cyclin E1 = CDK1/Cyclin E1 (Homo sapiens, UniProt P06493); test: NanoBRET live-cell target engagement, CDK1-NanoLuc/Cyclin E1 in HEK-293; type: binding
CDK17/Cyclin Y = CDK17/Cyclin Y (Homo sapiens, UniProt Q00537); test: NanoBRET live-cell target engagement, CDK17-NanoLuc/Cyclin Y in HEK-293; type: binding; conditions: CDK17/Y
CDK20/Cyclin H = CDK20/Cyclin H (Homo sapiens, UniProt Q8IZL9); test: NanoBRET live-cell target engagement, NanoLuc-CDK20/Cyclin H in HEK-293; type: binding; conditions: CDK20/H; 10µM
CDK19/Cyclin C = CDK19/Cyclin C (Homo sapiens, UniProt Q9BWU1); test: NanoBRET live-cell target engagement, NanoLuc-CDK19/Cyclin C in HEK-293
CDK15/Cyclin Y = CDK15/Cyclin Y (Homo sapiens, UniProt Q96Q40); test: NanoBRET live-cell target engagement, NanoLuc-CDK15/Cyclin Y in HEK-293; type: binding; conditions: CDK15/Y
CDK9/Cyclin K = CDK9/Cyclin K (Homo sapiens, UniProt P50750); test: NanoBRET live-cell target engagement, NanoLuc-CDK9/Cyclin K in HEK-293; type: binding; conditions: CDK9/K, 10µM
CDK6/Cyclin D1 = CDK6/Cyclin D1 (Homo sapiens, UniProt Q00534); test: NanoBRET live-cell target engagement, NanoLuc-CDK6/Cyclin D1 in HEK-293; type: binding; conditions: CDK6/D1
CDK3/Cyclin E1 = CDK3/Cyclin E1 (Homo sapiens, UniProt Q00526); test: NanoBRET live-cell target engagement, CDK3-NanoLuc/Cyclin E1 in HEK-293; type: binding; conditions: CDK3/E1
CDK2/Cyclin E1 = CDK2/Cyclin E1 (Homo sapiens, UniProt P24941); test: NanoBRET live-cell target engagement, CDK2-NanoLuc/Cyclin E1 in HEK-293; type: binding; conditions: CDK2/E1
CDK16/Cyclin Y = CDK16/Cyclin Y (Homo sapiens, UniProt Q00536); test: NanoBRET live-cell target engagement, CDK16-NanoLuc/Cyclin Y in HEK-293; type: binding; conditions: CDK16/Y
CDK8/Cyclin C = CDK8/Cyclin C (Homo sapiens, UniProt P49336); test: NanoBRET live-cell target engagement, NanoLuc-CDK8/Cyclin C in HEK-293; type: binding; conditions: CDK8/C
CDK14/Cyclin Y = CDK14/Cyclin Y (Homo sapiens, UniProt O94921); test: NanoBRET live-cell target engagement, CDK14-NanoLuc/Cyclin Y in HEK-293; type: binding; conditions: CDK14/Y
CDK11B/Cyclin L2 = CDK11B/Cyclin L2 (Homo sapiens, UniProt P21127); test: NanoBRET live-cell target engagement, CDK11B-NanoLuc/Cyclin L2 in HEK-293; type: binding; conditions: CDK11b/L2, 10µM
CDK18/Cyclin Y = CDK18/Cyclin Y (Homo sapiens, UniProt Q07002); test: NanoBRET live-cell target engagement, CDK18-NanoLuc/Cyclin Y in HEK-293; type: binding; conditions: CDK18/Y
CDK10/Cyclin L2 = CDK10/Cyclin L2 (Homo sapiens, UniProt Q15131); test: NanoBRET live-cell target engagement, CDK10-NanoLuc/Cyclin L2 in HEK-293; conditions: CDK10/L2
CDK4/Cyclin D1 = CDK4/Cyclin D1 (Homo sapiens, UniProt P11802); test: NanoBRET live-cell target engagement, NanoLuc-CDK4/Cyclin D1 in HEK-293; type: binding; conditions: CDK4/D1
CDK5/CDK5R1 = CDK5/CDK5R1 (Homo sapiens, UniProt Q00535); test: NanoBRET live-cell target engagement, CDK5-NanoLuc/CDK5R1 in HEK-293; type: binding; conditions: CDK5/CDK5R1
[1] = n=3 average ± SEM, n=2 average to 2 significant figures, read-out: IC50 (nM) Average*
[2] = read-out: IC50 (nM) Replicate 1
[3] = read-out: IC50 (nM) Replicate 2

Chain of CDK8/Cyclin C (P49336 whole entry): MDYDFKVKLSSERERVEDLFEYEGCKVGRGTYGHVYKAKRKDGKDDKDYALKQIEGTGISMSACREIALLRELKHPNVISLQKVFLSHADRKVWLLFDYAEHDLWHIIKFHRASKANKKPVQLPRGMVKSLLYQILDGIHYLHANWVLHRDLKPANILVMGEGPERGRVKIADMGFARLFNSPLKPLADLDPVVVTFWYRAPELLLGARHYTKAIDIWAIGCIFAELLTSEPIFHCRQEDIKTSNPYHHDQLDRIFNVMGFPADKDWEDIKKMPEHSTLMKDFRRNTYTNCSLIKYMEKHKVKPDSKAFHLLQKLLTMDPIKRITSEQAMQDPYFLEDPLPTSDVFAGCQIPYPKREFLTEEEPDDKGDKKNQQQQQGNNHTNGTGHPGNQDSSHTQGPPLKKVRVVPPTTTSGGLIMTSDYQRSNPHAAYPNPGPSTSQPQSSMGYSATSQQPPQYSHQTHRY
Chain of CDK8/Cyclin C (P24863 whole entry partner): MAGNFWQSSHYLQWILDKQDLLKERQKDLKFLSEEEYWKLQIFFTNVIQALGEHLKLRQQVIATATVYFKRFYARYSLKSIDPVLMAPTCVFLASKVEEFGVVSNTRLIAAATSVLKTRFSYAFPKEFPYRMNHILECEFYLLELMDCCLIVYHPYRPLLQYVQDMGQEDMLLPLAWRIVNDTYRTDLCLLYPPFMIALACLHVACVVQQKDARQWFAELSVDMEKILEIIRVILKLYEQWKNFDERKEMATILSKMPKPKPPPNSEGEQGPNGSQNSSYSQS
Chain of CDK9/Cyclin K (P50750 whole entry): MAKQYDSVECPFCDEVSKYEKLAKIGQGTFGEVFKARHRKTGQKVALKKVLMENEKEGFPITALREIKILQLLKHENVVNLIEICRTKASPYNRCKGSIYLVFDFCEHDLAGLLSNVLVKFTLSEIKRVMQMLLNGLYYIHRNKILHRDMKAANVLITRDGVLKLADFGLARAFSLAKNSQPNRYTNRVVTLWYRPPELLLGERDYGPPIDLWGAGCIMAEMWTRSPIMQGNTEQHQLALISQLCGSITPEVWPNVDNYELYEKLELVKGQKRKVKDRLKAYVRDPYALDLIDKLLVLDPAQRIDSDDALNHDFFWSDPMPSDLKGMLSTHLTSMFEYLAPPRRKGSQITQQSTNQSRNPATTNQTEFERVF
Chain of CDK9/Cyclin K (O75909 whole entry partner): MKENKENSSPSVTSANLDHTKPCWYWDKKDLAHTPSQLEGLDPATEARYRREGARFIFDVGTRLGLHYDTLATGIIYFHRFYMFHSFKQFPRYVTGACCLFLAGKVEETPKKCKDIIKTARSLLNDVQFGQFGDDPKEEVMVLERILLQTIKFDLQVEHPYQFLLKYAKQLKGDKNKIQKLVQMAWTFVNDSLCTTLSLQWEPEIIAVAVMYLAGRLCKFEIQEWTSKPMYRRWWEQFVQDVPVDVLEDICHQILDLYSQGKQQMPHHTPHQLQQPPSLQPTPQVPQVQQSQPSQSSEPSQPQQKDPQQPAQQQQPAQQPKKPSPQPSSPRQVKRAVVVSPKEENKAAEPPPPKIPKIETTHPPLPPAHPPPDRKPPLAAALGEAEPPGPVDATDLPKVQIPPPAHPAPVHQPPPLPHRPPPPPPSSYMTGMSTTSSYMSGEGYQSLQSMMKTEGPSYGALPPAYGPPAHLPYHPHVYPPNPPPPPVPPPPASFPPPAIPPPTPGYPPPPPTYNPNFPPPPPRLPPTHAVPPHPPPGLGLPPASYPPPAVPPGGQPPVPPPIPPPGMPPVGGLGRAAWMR
Chain of CDK17/Cyclin Y (Q00537 whole entry): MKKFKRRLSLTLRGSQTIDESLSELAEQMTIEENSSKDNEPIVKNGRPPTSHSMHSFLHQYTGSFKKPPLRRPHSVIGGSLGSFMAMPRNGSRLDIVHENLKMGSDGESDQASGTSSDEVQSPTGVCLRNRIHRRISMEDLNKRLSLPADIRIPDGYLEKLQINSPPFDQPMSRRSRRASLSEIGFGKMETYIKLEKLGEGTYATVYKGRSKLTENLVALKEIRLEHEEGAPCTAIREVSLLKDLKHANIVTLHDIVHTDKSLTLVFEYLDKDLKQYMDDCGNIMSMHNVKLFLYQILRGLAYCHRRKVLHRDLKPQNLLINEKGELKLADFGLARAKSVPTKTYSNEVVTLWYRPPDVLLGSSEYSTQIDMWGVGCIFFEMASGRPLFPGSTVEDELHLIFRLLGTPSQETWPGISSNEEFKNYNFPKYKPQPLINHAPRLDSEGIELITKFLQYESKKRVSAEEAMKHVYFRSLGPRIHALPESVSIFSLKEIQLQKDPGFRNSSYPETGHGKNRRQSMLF
Chain of CDK17/Cyclin Y (Q8ND76 whole entry partner): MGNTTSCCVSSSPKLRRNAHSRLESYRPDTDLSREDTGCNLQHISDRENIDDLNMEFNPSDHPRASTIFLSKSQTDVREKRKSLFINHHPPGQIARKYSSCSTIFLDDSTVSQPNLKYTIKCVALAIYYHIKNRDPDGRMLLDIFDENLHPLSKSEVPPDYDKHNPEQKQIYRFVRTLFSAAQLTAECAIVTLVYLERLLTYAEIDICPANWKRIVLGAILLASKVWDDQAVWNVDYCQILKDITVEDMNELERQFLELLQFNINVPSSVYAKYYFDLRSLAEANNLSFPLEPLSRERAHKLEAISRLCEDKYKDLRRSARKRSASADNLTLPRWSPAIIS
Chain of CDK12/Cyclin K (Q9NYV4 1-1481 isoform Q9NYV4-2): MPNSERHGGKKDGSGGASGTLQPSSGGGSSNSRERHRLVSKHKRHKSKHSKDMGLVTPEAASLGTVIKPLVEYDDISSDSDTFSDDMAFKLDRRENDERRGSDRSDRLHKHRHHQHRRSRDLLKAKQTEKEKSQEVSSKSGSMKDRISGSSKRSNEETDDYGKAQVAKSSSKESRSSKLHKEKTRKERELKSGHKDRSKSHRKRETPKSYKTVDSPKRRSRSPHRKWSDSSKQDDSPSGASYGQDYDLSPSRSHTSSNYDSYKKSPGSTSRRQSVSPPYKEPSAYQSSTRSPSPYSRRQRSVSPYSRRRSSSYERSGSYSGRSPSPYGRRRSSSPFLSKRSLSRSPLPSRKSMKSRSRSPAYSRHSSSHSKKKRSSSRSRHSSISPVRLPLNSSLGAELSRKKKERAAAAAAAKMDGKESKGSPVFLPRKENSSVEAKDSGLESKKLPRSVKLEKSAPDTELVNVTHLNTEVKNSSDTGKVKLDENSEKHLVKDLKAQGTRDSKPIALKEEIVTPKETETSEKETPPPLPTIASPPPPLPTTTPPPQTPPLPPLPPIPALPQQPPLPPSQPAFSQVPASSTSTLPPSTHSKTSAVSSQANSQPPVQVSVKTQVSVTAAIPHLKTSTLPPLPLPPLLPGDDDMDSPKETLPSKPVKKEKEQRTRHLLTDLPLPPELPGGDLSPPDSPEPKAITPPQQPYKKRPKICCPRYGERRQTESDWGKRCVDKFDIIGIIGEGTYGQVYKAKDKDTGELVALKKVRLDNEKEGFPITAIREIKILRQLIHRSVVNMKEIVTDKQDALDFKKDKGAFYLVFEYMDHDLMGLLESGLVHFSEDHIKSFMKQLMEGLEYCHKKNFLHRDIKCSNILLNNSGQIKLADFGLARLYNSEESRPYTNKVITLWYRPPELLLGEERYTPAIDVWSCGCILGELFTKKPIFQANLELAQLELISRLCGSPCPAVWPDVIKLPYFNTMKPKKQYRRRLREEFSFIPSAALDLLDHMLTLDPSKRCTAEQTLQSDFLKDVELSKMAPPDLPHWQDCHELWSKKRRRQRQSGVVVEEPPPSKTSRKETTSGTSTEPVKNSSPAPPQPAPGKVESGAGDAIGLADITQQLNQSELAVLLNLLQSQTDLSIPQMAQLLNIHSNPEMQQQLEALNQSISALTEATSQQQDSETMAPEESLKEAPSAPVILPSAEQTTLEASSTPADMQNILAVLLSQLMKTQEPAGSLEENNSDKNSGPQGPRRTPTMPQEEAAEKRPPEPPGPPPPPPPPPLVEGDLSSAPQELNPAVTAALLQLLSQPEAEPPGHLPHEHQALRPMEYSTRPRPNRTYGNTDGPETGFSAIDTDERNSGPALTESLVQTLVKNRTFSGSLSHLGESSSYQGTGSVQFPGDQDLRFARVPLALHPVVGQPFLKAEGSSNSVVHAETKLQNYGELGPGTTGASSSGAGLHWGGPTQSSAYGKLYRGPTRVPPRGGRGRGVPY
Chain of CDK12/Cyclin K (O75909 whole entry partner): as the sequence (O75909 whole entry partner) above
Chain of CDK18/Cyclin Y (Q07002 whole entry): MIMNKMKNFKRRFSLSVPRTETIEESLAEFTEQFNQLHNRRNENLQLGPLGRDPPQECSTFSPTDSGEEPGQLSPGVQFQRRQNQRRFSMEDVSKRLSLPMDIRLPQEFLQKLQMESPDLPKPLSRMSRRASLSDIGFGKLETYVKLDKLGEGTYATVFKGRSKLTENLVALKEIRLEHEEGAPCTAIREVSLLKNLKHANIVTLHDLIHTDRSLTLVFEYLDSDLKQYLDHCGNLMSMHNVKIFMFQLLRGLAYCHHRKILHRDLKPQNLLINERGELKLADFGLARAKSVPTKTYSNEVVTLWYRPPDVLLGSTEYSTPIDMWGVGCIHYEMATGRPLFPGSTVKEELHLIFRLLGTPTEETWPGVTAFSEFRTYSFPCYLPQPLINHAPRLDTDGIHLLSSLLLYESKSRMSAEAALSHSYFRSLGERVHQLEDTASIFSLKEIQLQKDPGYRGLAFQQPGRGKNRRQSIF
Chain of CDK18/Cyclin Y (Q8ND76 whole entry partner): as the sequence (Q8ND76 whole entry partner) above
Chain of CDK10/Cyclin L2 (Q15131 whole entry): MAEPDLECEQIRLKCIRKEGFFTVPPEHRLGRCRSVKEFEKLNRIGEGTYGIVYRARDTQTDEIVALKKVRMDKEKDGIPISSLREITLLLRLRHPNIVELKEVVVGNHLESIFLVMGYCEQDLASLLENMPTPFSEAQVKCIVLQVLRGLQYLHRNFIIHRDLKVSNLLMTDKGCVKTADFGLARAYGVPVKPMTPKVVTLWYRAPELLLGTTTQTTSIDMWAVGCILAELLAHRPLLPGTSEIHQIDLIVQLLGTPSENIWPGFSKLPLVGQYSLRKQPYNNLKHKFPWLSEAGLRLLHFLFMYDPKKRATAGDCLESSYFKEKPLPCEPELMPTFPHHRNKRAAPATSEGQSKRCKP

CNC1CCN(C(=O)c2ccc(Nc3ncc(F)c(-c4cnc(C)n4C(C)C)n3)cc2)C1 (centres unmarked) [AZD5597]
Inhibition at 10µM (%) Replicate 1 (CDK7; 10µM): 95.4% | Inhibition at 10µM (%) Replicate 2 (CDK7; 10µM): 93.6% | Inhibition at 10µM (%) Average (CDK7; 10µM, average of replicates): 94.5% | IC50 (CDK7; [1]): 120 nM | IC50 (CDK7; [2]): 100 nM | IC50 (CDK7; [3]): 150 nM | Inhibition at 10µM (%) Replicate 1 (CDK12/Cyclin K): 44.4% | Inhibition at 10µM (%) Replicate 2 (CDK12/Cyclin K): 42.5% | Inhibition at 10µM (%) Average (CDK12/Cyclin K; average of replicates): 43.5% | Inhibition at 10µM (%) Replicate 1 (CDK13/Cyclin K): 42.5% | Inhibition at 10µM (%) Replicate 2 (CDK13/Cyclin K): 57.5% | Inhibition at 10µM (%) Average (CDK13/Cyclin K; average of replicates): 50.0% | Inhibition at 10µM (%) Replicate 1 (CDK1/Cyclin E1; CDK1/E1, 10µM): 93.8% | Inhibition at 10µM (%) Replicate 2 (CDK1/Cyclin E1; CDK1/E1, 10µM): 95.4% | Inhibition at 10µM (%) Average (CDK1/Cyclin E1; CDK1/E1, 10µM, average of replicates): 94.6% | IC50 (CDK1/Cyclin E1; CDK1/E1, n=3 average ± SEM, n=2 average to 2 significant figures, read-out: IC50 (nM) Average*): 9 nM | IC50 (CDK1/Cyclin E1; CDK1/E1, read-out: IC50 (nM) Replicate 1): 9 nM | IC50 (CDK1/Cyclin E1; CDK1/E1, read-out: IC50 (nM) Replicate 2): 9 nM | IC50 (CDK1/Cyclin E1; live HEK-293, 2 h, mean ± S.E.M. (n=3) or mean (n=2), read-out: IC50 for CDK/cyclin complexes, CDK1/E1): 9 nM | Inhibition at 10µM (%) Replicate 1 (CDK17/Cyclin Y; 10µM): 90.9% | Inhibition at 10µM (%) Replicate 2 (CDK17/Cyclin Y; 10µM): 91.8% | Inhibition at 10µM (%) Average (CDK17/Cyclin Y; 10µM, average of replicates): 91.3% | IC50 (CDK17/Cyclin Y; [1]): 10 nM | IC50 (CDK17/Cyclin Y; [2]): 6.5 nM | IC50 (CDK17/Cyclin Y; [3]): 13 nM | Inhibition at 10µM (%) Replicate 1 (CDK20/Cyclin H): 68.9% | Inhibition at 10µM (%) Replicate 2 (CDK20/Cyclin H): 74.8% | Inhibition at 10µM (%) Replicate 1 (CDK19/Cyclin C; CDK19/C, 10µM): 88.7% | Inhibition at 10µM (%) Replicate 2 (CDK19/Cyclin C; CDK19/C, 10µM): 89.0% | Inhibition at 10µM (%) Average (CDK19/Cyclin C; CDK19/C, 10µM, average of replicates): 88.9% | IC50 (CDK19/Cyclin C; read-out: IC50 (nM) Average*, CDK19/Y, n=3 average ± SEM, n=2 average to 2 significant figures): 240 nM | IC50 (CDK19/Cyclin C; read-out: IC50 (nM) Replicate 1, CDK19/C): 354 nM | IC50 (CDK19/Cyclin C; read-out: IC50 (nM) Replicate 2, CDK19/C): 119 nM | Inhibition at 10µM (%) Replicate 1 (CDK15/Cyclin Y; 10µM): 93.9% | Inhibition at 10µM (%) Replicate 2 (CDK15/Cyclin Y; 10µM): 95.6% | Inhibition at 10µM (%) Average (CDK15/Cyclin Y; 10µM, average of replicates): 94.7% | IC50 (CDK15/Cyclin Y; [1]): 300 nM | IC50 (CDK15/Cyclin Y; [2]): 250 nM | IC50 (CDK15/Cyclin Y; [3]): 350 nM | Inhibition at 10µM (%) Replicate 1 (CDK9/Cyclin K): 98.2% | Inhibition at 10µM (%) Replicate 2 (CDK9/Cyclin K): 100.7% | Inhibition at 10µM (%) Average (CDK9/Cyclin K; average of replicates): 99.5% | Inhibition at 10µM (%) Replicate 1 (CDK6/Cyclin D1; 10µM): 99.7% | Inhibition at 10µM (%) Replicate 2 (CDK6/Cyclin D1; 10µM): 100.6% | Inhibition at 10µM (%) Average (CDK6/Cyclin D1; 10µM, average of replicates): 100.1% | IC50 (CDK6/Cyclin D1; [1]): 8.3 nM | IC50 (CDK6/Cyclin D1; [2]): 10 nM | IC50 (CDK6/Cyclin D1; [3]): 6.5 nM | Inhibition at 10µM (%) Replicate 1 (CDK3/Cyclin E1; 10µM): 99.1% | Inhibition at 10µM (%) Replicate 2 (CDK3/Cyclin E1; 10µM): 98.8% | Inhibition at 10µM (%) Average (CDK3/Cyclin E1; 10µM, average of replicates): 98.9% | IC50 (CDK3/Cyclin E1; [1]): 3.4 nM | IC50 (CDK3/Cyclin E1; [2]): 1.6 nM | IC50 (CDK3/Cyclin E1; [3]): 5.2 nM | Inhibition at 10µM (%) Replicate 1 (CDK2/Cyclin E1; 10µM): 99.9% | Inhibition at 10µM (%) Replicate 2 (CDK2/Cyclin E1; 10µM): 99.7% | Inhibition at 10µM (%) Average (CDK2/Cyclin E1; 10µM, average of replicates): 99.8% | IC50 (CDK2/Cyclin E1; [1]): 6.6 nM | IC50 (CDK2/Cyclin E1; [2]): 6.7 nM | IC50 (CDK2/Cyclin E1; [3]): 6.4 nM | Inhibition at 10µM (%) Replicate 1 (CDK16/Cyclin Y; 10µM): 88.2% | Inhibition at 10µM (%) Replicate 2 (CDK16/Cyclin Y; 10µM): 91.4% | IC50 (CDK16/Cyclin Y; [1]): 13 nM | IC50 (CDK16/Cyclin Y; [2]): 8.9 nM | IC50 (CDK16/Cyclin Y; [3]): 18 nM | Inhibition at 10µM (%) Replicate 1 (CDK8/Cyclin C; 10µM): 91.3% | Inhibition at 10µM (%) Replicate 2 (CDK8/Cyclin C; 10µM): 98.8% | Inhibition at 10µM (%) Average (CDK8/Cyclin C; 10µM, average of replicates): 95.1% | IC50 (CDK8/Cyclin C; [1]): 370 nM | IC50 (CDK8/Cyclin C; [2]): 434 nM | IC50 (CDK8/Cyclin C; [3]): 297 nM | Inhibition at 10µM (%) Replicate 1 (CDK14/Cyclin Y; 10µM): 93.6% | Inhibition at 10µM (%) Replicate 2 (CDK14/Cyclin Y; 10µM): 93.4% | Inhibition at 10µM (%) Average (CDK14/Cyclin Y; 10µM, average of replicates): 93.5% | IC50 (CDK14/Cyclin Y; [1]): 250 nM | IC50 (CDK14/Cyclin Y; [2]): 151 nM | IC50 (CDK14/Cyclin Y; [3]): 350 nM | Inhibition at 10µM (%) Replicate 1 (CDK11B/Cyclin L2): 88.8% | Inhibition at 10µM (%) Replicate 2 (CDK11B/Cyclin L2): 88.6% | Inhibition at 10µM (%) Average (CDK11B/Cyclin L2; average of replicates): 88.7% | Inhibition at 10µM (%) Replicate 1 (CDK18/Cyclin Y; 10µM): 94.0% | Inhibition at 10µM (%) Replicate 2 (CDK18/Cyclin Y; 10µM): 101.0% | Inhibition at 10µM (%) Average (CDK18/Cyclin Y; 10µM, average of replicates): 97.5% | IC50 (CDK18/Cyclin Y; [1]): 130 nM | IC50 (CDK18/Cyclin Y; [2]): 86 nM | IC50 (CDK18/Cyclin Y; [3]): 174 nM | Inhibition at 10µM (%) Replicate 1 (CDK10/Cyclin L2; 10µM): 85.6% | Inhibition at 10µM (%) Replicate 2 (CDK10/Cyclin L2; 10µM): 87.4% | Inhibition at 10µM (%) Average (CDK10/Cyclin L2; 10µM, average of replicates): 86.5% | IC50 (CDK10/Cyclin L2; read-out: IC50 (nM) Average*, n=3 average ± SEM, n=2 average to 2 significant figures): 520 nM | IC50 (CDK10/Cyclin L2; [2]): 450 nM | IC50 (CDK10/Cyclin L2; [3]): 580 nM | Inhibition at 10µM (%) Replicate 1 (CDK4/Cyclin D1; 10µM): 101.0% | Inhibition at 10µM (%) Replicate 2 (CDK4/Cyclin D1; 10µM): 98.2% | Inhibition at 10µM (%) Average (CDK4/Cyclin D1; 10µM, average of replicates): 99.6% | IC50 (CDK4/Cyclin D1; [1]): 7 nM | IC50 (CDK4/Cyclin D1; [2]): 7.4 nM | IC50 (CDK4/Cyclin D1; [3]): 6.6 nM | Inhibition at 10µM (%) Replicate 1 (CDK5/CDK5R1; 10µM): 90.7% | Inhibition at 10µM (%) Replicate 2 (CDK5/CDK5R1; 10µM): 97.1% | Inhibition at 10µM (%) Average (CDK5/CDK5R1; 10µM, average of replicates): 93.9% | IC50 (CDK5/CDK5R1; [1]): 10 nM | IC50 (CDK5/CDK5R1; [2]): 8.2 nM | IC50 (CDK5/CDK5R1; [3]): 12 nM
